The values below come from PubChem BioAssay AID651648 (Sanford-Burnham Center for Chemical Genomics, 2012).

The source made the active and inactive calls. No rule for the calls is given here.

For the test, the target named is CRF-binding protein / CRF-R2 receptor complex (human). The test is described as follows: CRF-BP/CRF-R2 complex agonists, SAR follow-up, cell-based, 384-well (AID 651648). The conditions noted are these: cells expressing CRF-BP/CRF-R2 complex, agonist read-out.

With `CCOc1ccc(S(=O)(=O)N(CC(=O)N2CCOCC2)c2ccccc2)cc1`, the EC50 is > 20000 nM (inactive).
For `CCc1ccccc1N(CC(=O)N1CCOCC1)S(=O)(=O)c1ccc(C)cc1` the value was > 20000 nM (inactive).
With `CCOC(=O)N1CCN(C(=O)c2c[nH]c3ccc(S(=O)(=O)N(C)c4cccc(C)c4)cc3c2=O)CC1`, the EC50 is 2510 nM.
With `CSCCC(NC(=O)c1ccco1)C(=O)OC(C)C(=O)NC(=O)NC1CCCCC1` (stereo not given), the EC50 is 1610 nM.
As for `CCCCCn1nc(-c2ccccc2)c2nc3ccccc3nc21`, the EC50 is 3160 nM.

The EC50 is the concentration that produces a half-maximal response.
